Test results: patent US20260124213A1, “STAPHYLOCOCCUS AUREUS PBP4 INHIBITORS AND METHOD OF USE” (UNIVERSITY OF ROCHESTER, priority 2022, published 2026)

Legend:
recombinant PBP4 = assay: BOCILLIN FL labeling of PBP4, gel electrophoresis and fluorescence detection; format: binding; conditions: kanamycin 2000 μM or 5000 μM
Description: PBP4 BOCILLIN™ FL Binding Competition Assays. The ability of putative PBP4 inhibitors to impact the active site of recombinant PBP4 was assessed using two previously established BOCILLIN™-FL Penicillin (Penicillin V conjugated to BODIPY fluorescent dye) binding assays. First, fluorescence polarization assays were performed as previously described. Briefly, the indicated amount of the putative PBP4 inhibitor or control antibiotic was incubated with 1 μM recombinant B. subtilis PBP4 or S. aureus PBP2a in potassium phosphate buffer (40 mM K2HPO4 and 10 mM KH2PO4) for 1 hour in black 96-well microtiter plates (Corning Life Sciences®, Corning, NY). […] BOCILLIN™ FL fluorescence polarization was measured at (495nm excitation and 545nm emission) in a SpectraMax® M5 multimode plate reader (Molecular Devices®, San Jose, CA). […] Second, gel electrophoresis and fluorescence detection were used to measure BOCILLIN™ FL labeling of PBP4 treated with the known PBP4 inhibitor cefoxitin (positive control), kanamycin (negative control) or 9314848 (test compound). […] BOCILLIN™ FL labeled PBP4 was imaged at λ=365 nm using a BioRad© Gel Doc EZ™ Imaging system and the gel was then subsequently stained with Bio-safe Coomassie Brilliant Blue stain (BioRad©, Hercules, CA, USA) to measure the amount of protein present in each reaction condition and analyzed using NIH-ImageJ software. […]

MRSA strain AH-2204 = assay: Broth microdilution antibiotic potentiation; format: cell-based, Staphylococcus aureus; conditions: AH-2204
Description: (§1) Broth Microdilution Method for Antibiotic Potentiation with MRSA Strains. Bacteria were cultured for 6 hours in CAMHB and sub-cultured to 5×10^5 CFU/mL in CAMHB. Subcultures were aliquoted (4 mL) into culture tubes and then inoculated with compound from 10 mM or 100 mM stock in DMSO to the desired concentration. […]. Bacteria treated with antibiotic alone served as the control. Samples from the secondary culture tubes were then aliquoted (200 μL) into the first row of wells of a 96-well microtiter plate. Rows 2-11 were filled (100 μL) with the remaining 4 mL of bacterial subculture containing the adjuvant. Row 12 was filled (100 μL) with uninoculated media. From row 1, 100 μL was transferred to row two and mixed 5-8 times before being transferred to row 3. This procedure was used to serial dilute the rest of the rows through 10. The microtiter plate was then covered in Press 'n Seal and incubated at 37° C.

MRSA strain AH-1263 = assay: Broth microdilution antibiotic potentiation; format: cell-based, Staphylococcus aureus; conditions: AH-1263; for Ampicillin MIC / Ampicillin MIC fold reduction / Cefotaxime MIC / Oxacillin MIC: Ex. 3 compound at 60 μM (18 and 19 at 30 μM)
Description: as §1

[1] = test system: MRSA strain ATCC BAA-1556; assay: Broth microdilution antibiotic potentiation; format: cell-based, Staphylococcus aureus; conditions: ATCC BAA-1556
Description: as §1

[2] = biological target: recombinant B. subtilis PBP4 (Bacillus subtilis, UniProt P40750); assay: BOCILLIN FL fluorescence polarization binding competition; conditions: compound 50 μM; Ex. 3 series
Sequence of recombinant B. subtilis PBP4 (P40750 22-624): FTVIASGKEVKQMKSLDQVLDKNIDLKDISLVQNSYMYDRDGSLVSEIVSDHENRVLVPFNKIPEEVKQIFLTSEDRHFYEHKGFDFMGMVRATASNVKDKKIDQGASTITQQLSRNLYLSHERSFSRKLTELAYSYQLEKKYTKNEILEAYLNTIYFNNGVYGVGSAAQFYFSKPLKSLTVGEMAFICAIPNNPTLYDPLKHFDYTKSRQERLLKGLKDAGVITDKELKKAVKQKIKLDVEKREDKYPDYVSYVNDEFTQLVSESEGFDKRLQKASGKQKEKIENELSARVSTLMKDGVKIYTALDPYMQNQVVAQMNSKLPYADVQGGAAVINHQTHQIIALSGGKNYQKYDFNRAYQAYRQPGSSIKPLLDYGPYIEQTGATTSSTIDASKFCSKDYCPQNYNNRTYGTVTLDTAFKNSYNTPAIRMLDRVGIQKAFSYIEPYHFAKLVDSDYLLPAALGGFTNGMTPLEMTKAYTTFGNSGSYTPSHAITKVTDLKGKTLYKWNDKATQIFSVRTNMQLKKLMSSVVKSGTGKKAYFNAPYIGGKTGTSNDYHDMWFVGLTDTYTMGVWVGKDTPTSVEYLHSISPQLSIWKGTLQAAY
Description: PBP4 BOCILLIN™ FL Binding Competition Assays. The ability of putative PBP4 inhibitors to impact the active site of recombinant PBP4 was assessed using two previously established BOCILLIN™-FL Penicillin (Penicillin V conjugated to BODIPY fluorescent dye) binding assays. First, fluorescence polarization assays were performed as previously described. Briefly, the indicated amount of the putative PBP4 inhibitor or control antibiotic was incubated with 1 μM recombinant B. subtilis PBP4 or S. aureus PBP2a in potassium phosphate buffer (40 mM K2HPO4 and 10 mM KH2PO4) for 1 hour in black 96-well microtiter plates (Corning Life Sciences®, Corning, NY). Following incubation, 1 μM (final concentration) BOCILLIN™ FL penicillin was added, and the mixture was incubated for 30 minutes. BOCILLIN™ FL fluorescence polarization was measured at (495nm excitation and 545nm emission) in a SpectraMax® M5 multimode plate reader (Molecular Devices®, San Jose, CA). All assays were repeated at least 8 times, averaged, and values falling outside of 2 standard deviations were considered outliers. Resulting data was plotted as percentage BOCILLIN™ FL binding inhibition=(T/U)×100; T=FL polarization of ((PBP4+BOCILLIN™ FL)−(PBP4+BOCILLIN™ FL+inhibitor compound)), U=FL polarization of ((PBP4+BOCILLIN™ FL)−(BOCILLIN™ FL)). Second, gel electrophoresis and fluorescence detection were used to measure BOCILLIN™ FL labeling of PBP4 treated with the known PBP4 inhibitor cefoxitin (positive control), kanamycin (negative control) or 9314848 (test compound). Briefly, 1 μM of recombinant PBP4 was mixed with 0, 50, 500, 2000, or 5000 μM 9314848 or control antibiotic in 50 mM phosphate buffer (pH 7.4) and incubated at 37° C. for 30 minutes. Next 40 μM of BOCILLIN™ FL was added to the reaction mixture and incubated for an additional 30 minutes at 37° C. Reactions were stopped by adding 5×SDS-PAGE gel loading dye, heated at 100° C. for 3 minutes and separated by electrophoresis in 12% SDS-PAGE (2 h, 120 Volts). BOCILLIN™ FL labeled PBP4 was imaged at λ=365 nm using a BioRad© Gel Doc EZ™ Imaging system and the gel was then subsequently stained with Bio-safe Coomassie Brilliant Blue stain (BioRad©, Hercules, CA, USA) to measure the amount of protein present in each reaction condition and analyzed using NIH-ImageJ software. The percent BOCILLIN™ FL binding was calculated by first normalizing the protein present in each reaction condition to that of untreated control and subsequently applying each reaction's protein normalization factor to each reaction's fluorescent signal. The percentage BOCILLIN™ FL binding inhibition was then calculated as the normalized band intensity of antibiotic/compound treated sample as compared to control sample (PBP4+BOCILLIN™ FL in the absence of compound).
To more directly evaluate whether 9314848 is likely to affect PBP4 function, the compound's ability to bind recombinant PBP4 was measured using BOCILLIN™ FL fluorescence polarization displacement assays. The premise for the assay is that the fluorescence polarization of the fluorescently labeled β-lactam, penicillin V (BOCILLIN™ FL), will increase upon binding to its cognate target (i.e., PBP4). Further, compounds that bind PBP4 and inhibit its function would impede BOCILLIN™ FL binding thereby allowing assessment of the protein binding affinity of 9314848 using a simple fluorescence reduction assay.

HEPG2 cells = assay: MTT cell viability / mammalian cytotoxicity; format: cell-based, human; conditions: compound at 100 μM; HEPG2 cells approximately 2.5 × 10^5 cells/mL
Description: Eukaryotic Toxicity Testing. Two rounds of eukaryotic toxicity testing were performed. Initially hits of interest were evaluated for antifungal activity in high throughput manner. To do so, 10^5 CFU of Saccharomyces cerevisiae YSB1001 cells (10 μL) were inoculated into individual wells of a microtiter plate containing yeast peptone dextrose media (88 μL) and 50 μM of each hit (2 μL). […] More extensive mammalian cytotoxicity testing was performed on the indicated highest priority hits of interest following International Organization for Standardization guidelines. Briefly, human liver epithelial cells (HEPG2) were cultured in Dulbecco's modified Eagle medium (DMEM; Fisher Scientific®) supplemented with 10% heat inactivated fetal bovine serum (FBS; Corning Life Sciences, Corning, NY) and 1% penicillin and streptomycin. Cells were incubated at 37° C. with 5% CO2 in Nunc™ tissue culture flasks (Roskilde, Denmark) until reaching 70% confluency. Cells were removed with 0.25% trypsin (Fisher Scientific®), resuspended in fresh medium, and used to seed approximately 2.5×10^5 mL^−1 cells into individual wells of a 96 well tissue culture microplate (Nunc™) containing 200 μL of fresh medium, and incubated for 24 hours. […] Mixtures were incubated for 20-24 h at 37° C. with 5% CO2, the media was removed and replaced with 100 μL fresh media and 10 μL of 12 mM (3-(4,5-dimethylthiazol-2-yl)-2,5-diphenyltetrazolium bromide (MTT) reagent (Cyquant™ Cell Viability kit; Invitrogen™, Carlsbad, CA) was added to each well. Cells were incubated at 37° C. with 5% CO2 for 2-4 hour, 85 μL of media was removed and the remainder was mixed with 50 μL DMSO and incubated for an additional 10 minutes at 37° C. in the dark. Using a SpectraMax® M5 microplate reader, cell viability was recorded as absorbance at OD540 nm. All compounds were tested in triplicate and cell viability was expressed as a percent viability of treated cells in comparison to mock treated cells. […]

[3] = Staphylococcus aureus, MRSA, read-out: Cefoxitin MIC, no compound (—)
[4] = Ex. 3 compound at 60 μM (18 and 19 at 30 μM)

Compound | Effect of preincubation on BOCILLIN FL labeling of PBP4 (gel) (recombinant PBP4) | MIC (MRSA strain AH-2204; [3]) | MIC (MRSA strain AH-1263; [3]) | MIC ([1]; Staphylococcus aureus, read-out: Cefoxitin MIC, no compound (—)) | Percentage Bocillin Displacement (%), PBP4 binding [2] | Ampicillin MIC (MRSA strain AH-2204; [4]) | Cefotaxime MIC (MRSA strain AH-2204; [4]) | Oxacillin MIC (MRSA strain AH-2204; [4]) | Oxacillin MIC fold reduction (MRSA strain AH-2204; [4]) | Ampicillin MIC (MRSA strain AH-1263) | Ampicillin MIC fold reduction (MRSA strain AH-1263) | Cefotaxime MIC (MRSA strain AH-1263) | Oxacillin MIC (MRSA strain AH-1263) | Ampicillin MIC [1, 4] | Cefotaxime MIC [1, 4] | Cefotaxime MIC fold reduction [1, 4] | Oxacillin MIC [1, 4] | Oxacillin MIC fold reduction [1, 4] | Toxicity with HEPG2 Cells (cell viability) (HEPG2 cells) | Cefotaxime MIC fold reduction (MRSA strain AH-2204; [4])
CO[C@@]1(NC(=O)Cc2cccs2)C(=O)N2C(C(=O)O)=C(COC(N)=O)CS[C@@H]21 [Cefoxitin, cefoxitin] | reduced the protein's ability to bind the fluorescent substrate in a dose-dependent manner | 2 µg/mL | 4 µg/mL | 8 µg/mL |  |  |  |  |  |  |  |  |  |  |  |  |  |  |  | 
O=C(Nc1ccc2[nH]c(-c3cc(Cl)cc(Cl)c3)nc2c1)c1ccco1 [Compound 33, N-(2-(3,5-Dichlorophenyl)-1H-benzo[d]imidazol-5-yl)furan-2-carboxamide] |  |  |  |  | 56.5 ± 35.6% | 2 µg/mL | 16 µg/mL | 4 µg/mL | (8) | 1 µg/mL | (16) | 32 µg/mL | 16 µg/mL | 16 µg/mL | 16 µg/mL | (2) | 16 µg/mL | (2) | 151 ± 11.3% | 
O=C(Nc1ccc2[nH]c(C3CCCCC3)nc2c1)c1ccco1 [Compound 34, N-(2-Cyclohexyl-1H-benzo[d]imidazol-5-yl)furan-2-carboxamide] |  |  |  |  | 60.3 ± 43.8% | 2 µg/mL | 8 µg/mL | 8 µg/mL | (4) | 2 µg/mL | (8) | 32 µg/mL | 16 µg/mL | 16 µg/mL | 32 µg/mL |  | 32 µg/mL |  | 97 ± 5.8% | (2)
